Reference: patent US11279744B2, “Neuropeptide Y fragment capable of releasing hematopoietic stem cells into blood and treating osteoporosis” (Kyungpook National University Industry-Academic Cooperation …, priority 2017, dated 2022)
Entries after “also recorded” stand apart in the source; their conditions may differ. Non-standard residues stand in square brackets, D forms with d. No end group written: not given here.

Columns and labels:
[1] = tested on: myelopoiesis progenitor cells in the blood; assay: Colony-forming unit (CFU) assay, progenitor cells in blood of osteoporosis animal models; assay type: in vivo, mouse; conditions: OVX mice, 50 μg/kg i.p. twice a day for 4 weeks, blood 1 hour after last dose
Procedure: To make an osteoporosis model, 10-18 12 weeks old female mice per group underwent ovarian ablation. A week later, 50 μg/kg of NPY(21-28), NPY D^25(21-28), NPY D^26(21-28), NPY D^25,26(21-28), Osteopep2, NPY and 100 μl of PBS(Gibco) were intraperitoneally administered twice a day for 4 weeks at 12 hour intervals. Alendronate (Sigma), used as a competitive drug, was intraperitoneally administered once a week for 4 weeks at a dose of 50 μg/kg. As a control group, only Sham model of osteoporosis was performed by subcutaneous dissection of female mouse. Mice were placed in experimental groups using the Block randomization method, and all mouse experiments were approved through the Kyungpook National University Institutional Animal Care and Use Committee. CFU analysis was performed to determine the number of bone marrow hematopoietic progenitor cells in the blood of mice. After anesthetizing the mouse first, 500 μl to 700 μl of blood were collected in a heparin tube by cardiac drawing, and then placed in ammonium chloride solution (Stem Cell Technologies, Inc. 1:10) and placed on ice for 15 minutes to remove red blood cells. The red blood cells were well shaken at intervals of 2 to 3 minutes and centrifuged at 1000 rpm for 7 minutes. The supernatant was removed and washed with IMDM (Gibco) supplied with 2% fetal bovine serum (FBS, Gibco). The washed cells (3×10^5 per mouse) were divided into three 35 mm dishes containing methylcellulose-based media (Methocult, Stem cell), and after the cells were incubated for two weeks, the number of colonies formed in the flask was counted. In order to investigate whether the NPY (21-28) of the present invention affects the blood release of myelopoiesis stem cells in the animal models of osteoporosis, the following experiments were carried out according to the methods of Examples 1-1, 1-3, 1-4, and 1-5. In order to make animal models of osteoporosis, 12 weeks old C57BL/6 female mice were subjected to ovarian ablation for 10 to 18 animals in each group. One week later, 50 μg/kg of NPY (21-28) and 100 μl of PBS (Gibco) were intraperitoneally administered twice a day for 4 weeks at 12 hour intervals. As a control group, mice that underwent only subcutaneous incisions in normal mice were used. Weight change was measured weekly, and bone marrow and blood were collected one hour after the last dose at 4 weeks, and the release of myelopoiesis progenitor and stem cells into blood was analyzed. The positive control group, NPY (21-36), Osteopep2 and full length NPY (50 μg/kg, intraperitoneally administered twice a day for 4 weeks) were used. Alendronate used as a competitive drug for osteoporosis treatment was intraperitoneally administered at a dose of 50 μg/kg for 4 weeks once a week. […]

[2] = tested on: animal models of osteoporosis; assay: Micro CT bone density in animal models of osteoporosis; assay type: in vivo, mouse; conditions: OVX mice, 50 μg/kg i.p. twice a day for 4 weeks; femur microCT; compared to PBS
Procedure: To make an osteoporosis model, 10-18 12 weeks old female mice per group underwent ovarian ablation. A week later, 50 μg/kg of NPY(21-28), NPY D^25(21-28), NPY D^26(21-28), NPY D^25,26(21-28), Osteopep2, NPY and 100 μl of PBS(Gibco) were intraperitoneally administered twice a day for 4 weeks at 12 hour intervals. Alendronate (Sigma), used as a competitive drug, was intraperitoneally administered once a week for 4 weeks at a dose of 50 μg/kg. As a control group, only Sham model of osteoporosis was performed by subcutaneous dissection of female mouse. Mice were placed in experimental groups using the Block randomization method, and all mouse experiments were approved through the Kyungpook National University Institutional Animal Care and Use Committee. The femurs were separated from the mouse and refrigerated in 80% ethanol, and in order to measure change of bone density, the bone volume/total volume and trabecular thickness were measured by analyzing the area between 0.7 mm and 2.3 mm from the growth plate baseline with the Quantum FX microCT Imaging System. Femurs were separated from mice after the last administration of NPY (21-28) at 4 weeks. To determine the change of bone density, bone density (bone volume/total volume) and bone tissue thickness (trabecular thickness) were measured with the Quantum FX microCT Imaging System. Femurs were separated from mice after the last administration of NPY D^25(21-28), NPY D^26(21-28), and NPY D^25,26(21-28) at 4 weeks. To determine the change of bone density, bone density (bone volume/total volume) and bone tissue thickness (trabecular thickness) were measured with the Quantum FX microCT Imaging System.

Substance	releasing myelopoiesis progenitor cells into blood (CFU assay) [1]	bone tissue thickness (trabecular thickness) [2]	percentage of bone density (BV/TV) [2]	releasing myelopoiesis progenitor cells into blood (CFU assay) ([1]; listed as NPY D^25,26 (21-28))
NPY D^25(21-28): peptide in which arginine, the fifth amino acid of the amino acid sequence of NPY (21-28), is modified to D-type (YSAL[dR]HYI)	increases	increased; also recorded: equal to or higher than that of NPY (21-28)	increased; also recorded: equal to or higher than that of NPY (21-28)	
NPY D^25,26(21-28): peptide in which both the fifth and sixth amino acids of NPY (21-28) are modified to D-form (YSAL[dR][dH]YI)	increases	increased; also recorded: equal to or higher than that of NPY (21-28); also recorded: best effect	increased; also recorded: equal to or higher than that of NPY (21-28); also recorded: best effect	highest efficiency; also recorded: even better than that of NPY (21-28)
YSALRHYI [NPY (21-28)]	increases; also recorded: superior to Osteopep2 and NPY	better than that of the Osteopep2 and NPY	better than that of the Osteopep2 and NPY	
